Source: patent US12559529B2, “NPY2 receptor agonists” (Boehringer Ingelheim International GmbH, priority 2019, dated 2026)
pKi: −log10 of the molar value. *1 amine or outer side, *2 acyl side, *3 side chain or, on linkers, in order; H or OH if unused. Where a SMILES comes first, the peptide text is derived from it. Side-chain parts run from the residue outwards. The star is where a group is joined. C18 diacid = O=C(O)CCCCCCCCCCCCCCCCC(=O)*; γGlu = O=C(O)[C@H](CCC(=O)[*:2])N[*:1]; Isovaleryl = CC(C)CC(=O)*; AEEA = NCCOCCOCC(=O)O

The molecules below were run against T1, Human Neuropeptide Y2 Receptor (Homo sapiens, UniProt P49146) (assay: Radioligand binding competition assay (RLB)). Conditions: Table 3; human 125I-PYY (1-36) 0.02 nM, Y2 receptor membranes; read-out: Ki.
T1 construct: purchased CHEMICON HTS066M
T1 sequence (P49146 1-381): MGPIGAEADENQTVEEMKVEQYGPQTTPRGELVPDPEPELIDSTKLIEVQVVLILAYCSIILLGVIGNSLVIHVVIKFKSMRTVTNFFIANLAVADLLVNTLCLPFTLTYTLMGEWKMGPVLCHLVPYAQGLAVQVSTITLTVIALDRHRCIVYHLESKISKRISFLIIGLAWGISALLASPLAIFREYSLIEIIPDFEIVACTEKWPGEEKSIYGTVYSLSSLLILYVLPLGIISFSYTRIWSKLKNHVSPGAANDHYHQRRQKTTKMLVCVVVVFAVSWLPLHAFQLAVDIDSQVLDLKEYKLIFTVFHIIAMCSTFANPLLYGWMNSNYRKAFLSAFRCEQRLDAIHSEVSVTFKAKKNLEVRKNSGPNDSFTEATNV
Outline: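 Competition binding at commercial human NPY Y2 membrane preparations, 0.5 μg protein per well, 2 h incubation at room temperature. Bound and free ligand were separated on GF/C filters and counted; IC50 was fitted by nonlinear regression.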

Structure (SMILES) | pKi
CC(C)CC(=O)N[C@@H](C)C(=O)N1CCC[C@H]1C(=O)N[C@@H](CCC(=O)O)C(=O)N[C@@H](CCCCNC(=O)COCCOCCNC(=O)COCCOCCNC(=O)CC[C@H](NC(=O)CCCCCCCCCCCCCCCCC(=O)O)C(=O)O)C(=O)N1CCC[C@H]1C(=O)N[C@@H](CCC(=O)O)C(=O)N[C@@H](C)C(=O)N[C@@H](CC(=O)O)C(=O)N[C@@H](C)C(=O)N[C@@H](CCC(=O)O)C(=O)N1CCC[C@H]1C(=O)N[C@@H](CCC(=O)O)C(=O)N[C@@H](CCC(=O)O)C(=O)N[C@@H](CC(C)C)C(=O)N[C@@H](CCC(N)=O)C(=O)N[C@@H](CCCNC(=N)N)C(=O)N[C@@H](Cc1ccc(O)cc1)C(=O)N[C@@H](Cc1ccc(O)cc1)C(=O)N[C@H](C(=O)N[C@@H](CO)C(=O)N[C@@H](CC(C)C)C(=O)N[C@@H](CCCNC(=N)N)C(=O)N[C@@H](Cc1c[nH]cn1)C(=O)N[C@@H](Cc1ccc(O)cc1)C(=O)N[C@@H](Cc1ccc(O)cc1)C(=O)N[C@@H](CC(N)=O)C(=O)N[C@@H](Cc1c[nH]c2ccccc12)C(=O)N[C@@H](CC(C)C)C(=O)N[C@H](C(=O)N[C@@H](CCCNC(=N)N)C(=O)N[C@@H](CCC(N)=O)C(=O)N[C@@H](CCCNC(=N)N)C(=O)N[C@@H](Cc1ccc(O)cc1)C(N)=O)[C@@H](C)O)[C@@H](C)O [Compound 160, N{alpha-4}-(3-methylbutanoyl)-N{epsilon-7}-[2-(2-{2-[2-(2-{2-[(4S)-4-carboxy-4-(17-carboxyheptadecanamido)butanamido]ethoxy}ethoxy)acetamido]ethoxy}ethoxy)acetamido]-[4A,7K,9E,10A,13E,18Q,22T,28Y,30W,31L]hPYY (4-36)] (Isovaleryl-APEK([AEEA-AEEA-γGlu-C18 diacid])PEADAEPEELQRYYTSLRHYYNWLTRQRY-NH2) | 8.70
CC(C)CC(=O)N[C@@H](C)C(=O)N1CCC[C@H]1C(=O)N[C@@H](CCC(=O)O)C(=O)N[C@@H](CCCCNC(=O)COCCOCCNC(=O)COCCOCCNC(=O)CC[C@H](NC(=O)CCCCCCCCCCCCCCCCC(=O)O)C(=O)O)C(=O)N1CCC[C@H]1C(=O)N[C@@H](CCC(=O)O)C(=O)N[C@@H](CCC(=O)O)C(=O)N[C@@H](CC(=O)O)C(=O)N[C@@H](C)C(=O)N[C@@H](CO)C(=O)N1CCC[C@H]1C(=O)N[C@@H](CCC(=O)O)C(=O)N[C@@H](CCC(=O)O)C(=O)N[C@@H](CC(C)C)C(=O)N[C@@H](CCC(N)=O)C(=O)N[C@@H](CCCNC(=N)N)C(=O)N[C@@H](Cc1ccc(O)cc1)C(=O)N[C@@H](CCC(N)=O)C(=O)N[C@H](C(=O)N[C@@H](CO)C(=O)N[C@@H](CC(C)C)C(=O)N[C@@H](CCCNC(=N)N)C(=O)N[C@@H](Cc1c[nH]cn1)C(=O)N[C@@H](Cc1ccc(O)cc1)C(=O)N[C@@H](Cc1ccc(O)cc1)C(=O)N[C@@H](CC(N)=O)C(=O)N[C@@H](Cc1c[nH]c2ccccc12)C(=O)N[C@@H](CC(C)C)C(=O)N[C@H](C(=O)N[C@@H](CCCNC(=N)N)C(=O)N[C@@H](CCC(N)=O)C(=O)N[C@@H](CCCNC(=N)N)C(=O)N[C@@H](Cc1ccc(O)cc1)C(N)=O)[C@@H](C)O)C(C)C [Compound 165, N{alpha-4}-(3-methylbutanoyl)-N{epsilon-7}-[2-(2-{2-[2-(2-{2-[(4S)-4-carboxy-4-(17-carboxyheptadecanamido)butanamido]ethoxy}ethoxy)acetamido]ethoxy}ethoxy)acetamido]-[4A,7K,9E,18Q,21Q,22V,28Y,30W,31L]hPYY (4-36)] | 8.60
CC(C)CC(=O)N[C@@H](C)C(=O)N1CCC[C@H]1C(=O)N[C@@H](CCC(=O)O)C(=O)N[C@@H](CCCCNC(=O)COCCOCCNC(=O)COCCOCCNC(=O)CC[C@H](NC(=O)CCCCCCCCCCCCCCCCC(=O)O)C(=O)O)C(=O)N1CCC[C@H]1C(=O)N1CCC[C@H]1C(=O)N[C@@H](C)C(=O)N[C@@H](CC(=O)O)C(=O)N[C@@H](C)C(=O)N[C@@H](CO)C(=O)N1CCC[C@H]1C(=O)N[C@@H](CCC(=O)O)C(=O)N[C@@H](CCC(=O)O)C(=O)N[C@@H](CC(C)C)C(=O)N[C@@H](CCC(N)=O)C(=O)N[C@@H](CCCNC(=N)N)C(=O)N[C@@H](Cc1ccc(O)cc1)C(=O)N[C@@H](Cc1ccc(O)cc1)C(=O)N[C@H](C(=O)N[C@@H](CCC(=O)O)C(=O)N[C@@H](CC(C)C)C(=O)N[C@@H](CCCNC(=N)N)C(=O)N[C@@H](Cc1c[nH]cn1)C(=O)N[C@@H](Cc1ccc(O)cc1)C(=O)N[C@@H](Cc1ccc(O)cc1)C(=O)N[C@@H](CC(N)=O)C(=O)N[C@@H](Cc1c[nH]c2ccccc12)C(=O)N[C@@H](CC(C)C)C(=O)N[C@H](C(=O)N[C@@H](CCCNC(=N)N)C(=O)N[C@@H](CCC(N)=O)C(=O)N[C@@H](CCCNC(=N)N)C(=O)N[C@@H](Cc1ccc(O)cc1)C(N)=O)[C@@H](C)O)C(C)C [Compound 166, N{alpha-4}-(3-methylbutanoyl)-N{epsilon-7}-[2-(2-{2-[2-(2-{2-[(4S)-4-carboxy-4-(17-carboxyheptadecanamido)butanamido]ethoxy}ethoxy)acetamido]ethoxy}ethoxy)acetamido]-[4A,7K,9P,10A,18Q,22V,23E,28Y,30W,31L]hPYY (4-36)] | 9.18
CC(C)CC(=O)N[C@@H](C)C(=O)N1CCC[C@H]1C(=O)N[C@@H](CCC(=O)O)C(=O)N[C@@H](CCCCNC(=O)COCCOCCNC(=O)COCCOCCNC(=O)CC[C@H](NC(=O)CCCCCCCCCCCCCCCCC(=O)O)C(=O)O)C(=O)N1CCC[C@H]1C(=O)N[C@@H](CCC(=O)O)C(=O)N[C@@H](CCC(=O)O)C(=O)N[C@@H](CCC(=O)O)C(=O)N[C@@H](C)C(=O)N[C@@H](CO)C(=O)N1CCC[C@H]1C(=O)N[C@@H](CCC(=O)O)C(=O)N[C@@H](CCC(=O)O)C(=O)N[C@@H](CC(C)C)C(=O)N[C@@H](CCC(N)=O)C(=O)N[C@@H](CCCNC(=N)N)C(=O)N[C@@H](Cc1ccc(O)cc1)C(=O)N[C@@H](Cc1ccc(O)cc1)C(=O)N[C@H](C(=O)N[C@@H](C)C(=O)N[C@@H](CC(C)C)C(=O)N[C@@H](CCCNC(=N)N)C(=O)N[C@@H](Cc1c[nH]cn1)C(=O)N[C@@H](Cc1ccc(O)cc1)C(=O)N[C@@H](Cc1ccc(O)cc1)C(=O)N[C@@H](CC(N)=O)C(=O)N[C@@H](Cc1c[nH]c2ccccc12)C(=O)N[C@@H](CC(C)C)C(=O)N[C@H](C(=O)N[C@@H](CCCNC(=N)N)C(=O)N[C@@H](CCC(N)=O)C(=O)N[C@@H](CCCNC(=N)N)C(=O)N[C@@H](Cc1ccc(O)cc1)C(N)=O)[C@@H](C)O)C(C)C [Compound 169, N{alpha-4}-(3-methylbutanoyl)-N{epsilon-7}-[2-(2-{2-[2-(2-{2-[(4S)-4-carboxy-4-(17-carboxyheptadecanamido)butanamido]ethoxy}ethoxy)acetamido]ethoxy}ethoxy)acetamido]-[4A,7K,9E,11E,18Q,22V,23A,28Y,30W,31L]hPYY (4-36)] | 8.63
CC(C)CC(=O)N[C@@H](C)C(=O)N1CCC[C@H]1C(=O)N[C@@H](CCC(=O)O)C(=O)N[C@@H](CCCCNC(=O)COCCOCCNC(=O)COCCOCCNC(=O)CC[C@H](NC(=O)CCCCCCCCCCCCCCCCC(=O)O)C(=O)O)C(=O)N1CCC[C@H]1C(=O)N[C@@H](CCC(=O)O)C(=O)N[C@@H](CCC(=O)O)C(=O)N[C@@H](CCC(=O)O)C(=O)N[C@@H](C)C(=O)N[C@@H](CO)C(=O)N1CCC[C@H]1C(=O)N[C@@H](CCC(=O)O)C(=O)N[C@@H](CCC(=O)O)C(=O)N[C@@H](CC(C)C)C(=O)N[C@@H](CCC(=O)O)C(=O)N[C@@H](CCC(N)=O)C(=O)N[C@@H](Cc1ccc(O)cc1)C(=O)N[C@@H](Cc1ccc(O)cc1)C(=O)N[C@H](C(=O)N[C@@H](CO)C(=O)N[C@@H](CC(C)C)C(=O)N[C@@H](CCCNC(=N)N)C(=O)N[C@@H](Cc1c[nH]cn1)C(=O)N[C@@H](Cc1ccc(O)cc1)C(=O)N[C@@H](Cc1ccc(O)cc1)C(=O)N[C@@H](CC(N)=O)C(=O)N[C@@H](Cc1c[nH]c2ccccc12)C(=O)N[C@@H](CC(C)C)C(=O)N[C@H](C(=O)N[C@@H](CCCNC(=N)N)C(=O)N[C@@H](CCC(N)=O)C(=O)N[C@@H](CCCNC(=N)N)C(=O)N[C@@H](Cc1ccc(O)cc1)C(N)=O)[C@@H](C)O)C(C)C [Compound 170, N{alpha-4}-(3-methylbutanoyl)-N{epsilon-7}-[2-(2-{2-[2-(2-{2-[(4S)-4-carboxy-4-(17-carboxyheptadecanamido)butanamido]ethoxy}ethoxy)acetamido]ethoxy}ethoxy)acetamido]-[4A,7K,9E,11E,18E,19Q,22V,28Y,30W,31L]hPYY (4-36)] (Isovaleryl-APEK([AEEA-AEEA-γGlu-C18 diacid])PEEEASPEELEQYYVSLRHYYNWLTRQRY-NH2) | 7.91
